Holding throughout (test): growth of human tumour cells (NCI), 48 h
The subject of assay [1] is COLO 205.
The subject of assay [2] is EKVX.
The subject of assay [3] is HOP-62.
In assay [4] the test system is HOP-92.
Assay [5] concerns HT-29.
For assay [6], the system named is Hs-578T.
For assay [7], the system named is IGROV-1.
The subject of assay [8] is M14.
Assay [9] concerns MDA-MB-435.
In assay [10] the test system is NCI-H23.
Assay [11] deals with OVCAR-4.
Assay [12] deals with OVCAR-5.
Assay [13] has as its system PC-3.
Assay [14] relates to SF-268.
Assay [15] deals with SK-MEL-28.
Assay [16] deals with SNB-75.
Assay [17] deals with SW-620.
Assay [18] concerns T47D.
The subject of assay [19] is CCRF-CEM.

The source of these data is ChEMBL document CHEMBL1201862, “PubChem BioAssay data set” (2004).

SMILES strings stand for the structures.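 A five-concentration, 48-hour dose response in 96-well plates underlies each endpoint, interpolated linearly between surrounding concentrations. GI50 is the concentration that inhibits growth by half.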 Active and inactive are the calls of the source. Cut-off read from the data, not from the text of the source: active = GI50 up to about 1.1 µM and inactive = higher. Bounds are passed on as bounds.

In the case of `CC(=O)OC1CCC2(C)C(CCC3C2CC(=O)C2(C)C3CC(N3CC3)C2C(C)=O)C1` (stereo not drawn), the GI50 in assay [1] was 15.8 µM (inactive); in assay [2], 18.4 µM (inactive); in [3] it was 24.5 µM (inactive); in assay [4], 18.4 µM (inactive); in assay [5], 22.6 µM (inactive); in assay [6], 15.1 µM (inactive). Further, the GI50 in assay [7] is 13.6 µM (inactive); in [8], 20.2 µM (inactive); in assay [9] it was 17.9 µM (inactive); in assay [10], 16.7 µM (inactive); in assay [11], 19.8 µM (inactive); in assay [12], 37.4 µM (inactive). Besides, the GI50 was 14.1 µM (inactive) in assay [13]; 11.6 µM (inactive) in assay [14]; 30.7 µM (inactive) in assay [15]; 17.2 µM (inactive) in assay [16]; 21.1 µM (inactive) in assay [17]; 18.7 µM (inactive) in assay [18].

Take `c1ccc(CCN2CCCCCC2)nc1`: the GI50 is > 100 µM (inactive) in assay [19]; > 100 µM (inactive) in [1]; 66.8 µM (inactive) in assay [2]; > 100 µM (inactive) in assay [3]; > 100 µM (inactive) in [4]; > 100 µM (inactive) in assay [5]. Also, the GI50 in [6], in [7], in assay [8], in assay [9], in [10] and in assay [11] was > 100 µM (inactive) in each case. In addition, the GI50 in [12], in assay [13], in assay [14], in assay [15], in assay [17] and in assay [18] was > 100 µM (inactive) in each case.

Consider `CCOC(=O)/C(C(=O)Nc1cccc(Cl)c1)=C(/N)N1CCOCC1`, for which the GI50 in [19], in assay [1], in assay [2], in assay [3], in assay [5] and in assay [6] was > 100 µM (inactive) in each case. The GI50 in assay [7], in assay [8], in assay [9], in assay [10], in assay [11] and in assay [12] was > 100 µM (inactive) in each case. Further, the GI50 in assay [13], in assay [14], in assay [15], in assay [16], in [17] and in assay [18] was > 100 µM (inactive) each time.

Turning to `O=C1CN(/N=C/c2ccc(-c3ccc(F)cc3)o2)C(=O)N1`, the GI50 is > 100 µM (inactive) in [19]; 29.7 µM (inactive) in [1]; > 100 µM (inactive) in assay [2]; > 100 µM (inactive) in [3]; 0.394 µM (active) in assay [4]; 45.5 µM (inactive) in assay [6]. Also, the GI50 is 41.6 µM (inactive) in assay [7]; 75.3 µM (inactive) in [8]; 18.5 µM (inactive) in assay [9]; 82.6 µM (inactive) in assay [10]; > 100 µM (inactive) in assay [12]; > 100 µM (inactive) in assay [13]. The GI50 in assay [14] is > 100 µM (inactive); in assay [15] it was 25.4 µM (inactive); in [17], 43 µM (inactive); in assay [18] it was > 100 µM (inactive).

With `Cc1cccnc1N/C=C1\C(=O)NC(=O)N(C)C1=O`, the GI50 in assay [1] is > 100 µM (inactive); in assay [2], 44 µM (inactive); in assay [3], > 100 µM (inactive); in assay [4], 65.6 µM (inactive); in [5] it was > 100 µM (inactive); in [6] it was > 100 µM (inactive). For the same compound, the GI50 was 64.1 µM (inactive) in assay [7]; > 100 µM (inactive) in assay [8]; > 100 µM (inactive) in [9]; 49.7 µM (inactive) in assay [10]; > 100 µM (inactive) in assay [11]; > 100 µM (inactive) in [12]. Moreover, the GI50 in assay [13] was > 100 µM (inactive); in assay [14], > 100 µM (inactive); in assay [15], > 100 µM (inactive); in assay [16], 35.9 µM (inactive); in assay [17], > 100 µM (inactive); in assay [18] it was 55.7 µM (inactive).

For the compound `CN(C)CCNc1nc2ccccc2c2c1CCCC2`, the GI50 in assay [1] was 22.9 µM (inactive); in assay [2], 37.9 µM (inactive); in [3] it was 16.5 µM (inactive); in assay [4], 12.3 µM (inactive); in [5], 22.8 µM (inactive); in [6], 32.7 µM (inactive). Besides, the GI50 was 17.2 µM (inactive) in assay [7]; 16.5 µM (inactive) in assay [8]; 18.2 µM (inactive) in assay [9]; 33.3 µM (inactive) in [10]; 48.9 µM (inactive) in [11]; 30.4 µM (inactive) in [12]. For the same compound, the GI50 was 26.5 µM (inactive) in assay [13]; 32.1 µM (inactive) in assay [14]; 17.7 µM (inactive) in assay [15]; 15.7 µM (inactive) in assay [16]; 26.2 µM (inactive) in assay [17]; 16.7 µM (inactive) in [18].

Take `CN(C)C(=S)Oc1ccc2ccc(=O)oc2c1`: the GI50 in assay [1], in [2], in assay [3], in assay [4], in assay [5] and in assay [6] was > 100 µM (inactive) throughout. The GI50 in assay [7], in assay [8], in assay [9], in assay [10], in [11] and in assay [12] was > 100 µM (inactive) in each case. The GI50 in assay [13], in assay [14], in [15], in [16], in assay [17] and in [18] was > 100 µM (inactive) in each case.

Take `COC1(OC)CCCCCCCCC(OC)(OC)CCCCCCCC1`: the GI50 in [1], in assay [2], in [3], in assay [4], in [5] and in [6] was > 100 µM (inactive) in each case. The GI50 in assay [7], in [8], in assay [9], in assay [10], in assay [12] and in [13] was > 100 µM (inactive) in each case. Further, the GI50 in [14], in assay [15], in assay [16], in [17] and in assay [18] was > 100 µM (inactive) throughout.

In the case of `CC(=O)N1c2ccccc2C2=NN(C)C(=N)SC21` (stereo not drawn), the GI50 in [19], in assay [1], in assay [2], in assay [3], in assay [5] and in assay [6] was > 100 µM (inactive) in each case. The GI50 in assay [8] was > 100 µM (inactive); in assay [9] it was 89.3 µM (inactive); in assay [10], > 100 µM (inactive); in assay [11], > 100 µM (inactive); in assay [12], > 100 µM (inactive); in assay [13], > 100 µM (inactive). Further, the GI50 was > 100 µM (inactive) in [14]; > 100 µM (inactive) in assay [15]; 56 µM (inactive) in [16]; > 100 µM (inactive) in assay [17]; 29.9 µM (inactive) in [18].

For the compound `CCCCCCc1cc2cc(C(=O)Nc3cccc(F)c3)c(=N)oc2cc1O`, the GI50 is 1.63 µM (inactive) in assay [19]; 14.6 µM (inactive) in assay [1]; 2.34 µM (inactive) in [2]; 4.57 µM (inactive) in assay [3]; 17.9 µM (inactive) in [5]; 2.21 µM (inactive) in assay [6]. Besides, the GI50 in assay [7] was 1.42 µM (inactive); in assay [8] it was 3.15 µM (inactive); in assay [9], 2.4 µM (inactive); in assay [10], 2.12 µM (inactive); in assay [11] it was 2.78 µM (inactive); in [12], 3.6 µM (inactive). Besides, the GI50 in assay [13] was 3.21 µM (inactive); in assay [14] it was 2.32 µM (inactive); in assay [15], 2.67 µM (inactive); in [17], 3.39 µM (inactive); in assay [18], 2.04 µM (inactive).

Take `Cn1cc(NC(=O)c2cc(NC(=O)CNC(=N)N)cn2C)cc1C(=O)NCCC(=N)N` [NETROPSIN CHLORIDE]: the GI50 in assay [19], in assay [1], in assay [2], in assay [3], in assay [4] and in assay [5] was > 100 µM (inactive) in each case. In addition, the GI50 in [6], in assay [7], in assay [8], in assay [9], in assay [10] and in assay [11] was > 100 µM (inactive) in each case. For the same compound, the GI50 in assay [12], in [13], in [14], in assay [15], in assay [17] and in assay [18] was > 100 µM (inactive) in each case.
